Test results published in ChEMBL document CHEMBL4507327 (2021).

Assays:
[1] = molecular target: STE20-related kinase adapter protein alpha (Homo sapiens, UniProt Q7RTN6); assay: STLK5(STRAPHD1) Takeda global kinase panel
[2] = molecular target: Serine/threonine-protein kinase NLK (Homo sapiens, UniProt Q9UBE8); assay: NLK(NLK1LGI5) Takeda global kinase panel
[3] = molecular target: Protein-tyrosine kinase 6 (Homo sapiens, UniProt Q13882); assay: Brk(PTK6LGY1) Takeda global kinase panel
[4] = molecular target: Protein kinase C delta type (Homo sapiens, UniProt Q05655); assay: PKCdelta(PRKDPFP1) Takeda global kinase panel
Sequence of Protein kinase C delta type (Q05655 whole entry): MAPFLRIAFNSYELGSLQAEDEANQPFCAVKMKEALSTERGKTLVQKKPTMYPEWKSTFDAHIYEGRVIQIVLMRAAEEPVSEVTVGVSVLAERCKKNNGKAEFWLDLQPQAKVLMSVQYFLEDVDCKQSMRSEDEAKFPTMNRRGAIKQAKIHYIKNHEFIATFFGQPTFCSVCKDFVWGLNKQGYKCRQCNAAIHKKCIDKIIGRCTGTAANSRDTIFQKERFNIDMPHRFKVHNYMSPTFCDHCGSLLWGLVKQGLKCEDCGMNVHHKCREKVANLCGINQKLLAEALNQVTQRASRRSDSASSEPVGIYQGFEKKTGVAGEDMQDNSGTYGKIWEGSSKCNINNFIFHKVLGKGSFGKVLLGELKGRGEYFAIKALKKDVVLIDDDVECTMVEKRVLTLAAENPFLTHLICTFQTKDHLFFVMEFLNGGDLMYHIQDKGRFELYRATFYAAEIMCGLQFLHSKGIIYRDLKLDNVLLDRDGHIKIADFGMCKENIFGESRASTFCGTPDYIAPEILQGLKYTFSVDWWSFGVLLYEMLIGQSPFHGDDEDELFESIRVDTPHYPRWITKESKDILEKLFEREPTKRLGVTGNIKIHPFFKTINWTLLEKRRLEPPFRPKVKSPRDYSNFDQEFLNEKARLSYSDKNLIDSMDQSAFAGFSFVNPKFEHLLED

[5] = molecular target: Serine/threonine-protein kinase ULK2 (Homo sapiens, UniProt Q8IYT8); assay: ULK2(ULK2LGY1) Takeda global kinase panel
[6] = molecular target: Sodium-dependent dopamine transporter (Homo sapiens) (UniProt Q01959); details: Compound concentration 10.0 uM
[7] = molecular target: D(3) dopamine receptor (Homo sapiens) (UniProt P35462); details: Compound concentration 10.0 uM
[8] = molecular target: Death-associated protein kinase 1 (Homo sapiens, UniProt P53355); assay: DAPK1(DAP1LGF1) Takeda global kinase panel
[9] = molecular target: Serine/threonine-protein kinase SIK3 (Homo sapiens, UniProt Q9Y2K2); assay: QSK(SIK3LGP1) Takeda global kinase panel
[10] = molecular target: Cyclin-dependent kinase 2 (Homo sapiens, UniProt P24941); assay: CDK2(CDK2CGS1) Takeda global kinase panel
[11] = molecular target: Serine/threonine-protein kinase PAK 5 (Homo sapiens, UniProt Q9P286); assay: PAK5(PAK7LGF1) Takeda global kinase panel
[12] = molecular target: Serine/threonine-protein kinase TNNI3K (Homo sapiens, UniProt Q59H18); assay: HH498(TNNILGY1) Takeda global kinase panel
[13] = molecular target: Cyclin-dependent kinase 16 (Homo sapiens, UniProt Q00536); assay: PCTAIRE1(CD16SGS1) Takeda global kinase panel
[14] = molecular target: Dual specificity tyrosine-phosphorylation-regulated kinase 1A (Homo sapiens, UniProt Q13627); assay: DYRK1A(DY1ALGP1) Takeda global kinase panel
[15] = molecular target: Tyrosine-protein kinase TXK (Homo sapiens, UniProt P42681); assay: TXK(TXK1CGD5) Takeda global kinase panel
[16] = molecular target: Mitogen-activated protein kinase 6 (Homo sapiens, UniProt Q16659); assay: ERK3(MAP6LHY1) Takeda global kinase panel
Ephrin type-A receptor 6 = Ephrin type-A receptor 6 (Homo sapiens, UniProt Q9UF33); assay: EphA6(EPA6LGI5) Takeda global kinase panel
[17] = molecular target: Melatonin receptor type 1A (Homo sapiens) (UniProt P48039); assay: Inhibition of Melatonin MT1 at 10 µM in the Eurofins-Panlabs radioligand binding assay (Eurofins_assay_251600); set-up: ligand concentration 0.05 nM; details: Compound concentration 10.0 uM
[18] = molecular target: Ribosomal protein S6 kinase alpha-5 (Homo sapiens, UniProt O75582); assay: MSK1(R6A5LGY1) Takeda global kinase panel
[19] = molecular target: Death-associated protein kinase 3 (Homo sapiens, UniProt O43293); assay: DAPK3(DAP3LGP1) Takeda global kinase panel
[20] = molecular target: Serine/threonine-protein kinase/endoribonuclease IRE1 (Homo sapiens, UniProt O75460); assay: IRE1(ERN1PHY1) Takeda global kinase panel
[21] = molecular target: Casein kinase I isoform epsilon (Homo sapiens, UniProt P49674); assay: CK1epsilon(CS1ELGI5) Takeda global kinase panel
[22] = molecular target: Serine/threonine-protein kinase 26 (Homo sapiens, UniProt Q9P289); assay: MST4(MST4LGC1) Takeda global kinase panel
Sequence of Serine/threonine-protein kinase 26 (Q9P289 whole entry): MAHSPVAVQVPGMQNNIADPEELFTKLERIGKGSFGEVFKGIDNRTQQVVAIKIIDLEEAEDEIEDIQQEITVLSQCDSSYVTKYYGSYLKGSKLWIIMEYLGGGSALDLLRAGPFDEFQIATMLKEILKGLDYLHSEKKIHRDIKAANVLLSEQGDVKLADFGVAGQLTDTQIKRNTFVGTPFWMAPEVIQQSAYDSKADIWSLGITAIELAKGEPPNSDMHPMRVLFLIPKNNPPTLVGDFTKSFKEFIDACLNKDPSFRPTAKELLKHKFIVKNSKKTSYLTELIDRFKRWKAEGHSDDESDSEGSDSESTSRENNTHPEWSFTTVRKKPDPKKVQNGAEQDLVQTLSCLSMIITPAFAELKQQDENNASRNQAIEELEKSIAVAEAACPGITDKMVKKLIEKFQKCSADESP

[23] = molecular target: Serine/threonine-protein kinase PLK3 (Homo sapiens, UniProt Q9H4B4); assay: PLK3(PLK3PHY1) Takeda global kinase panel
[24] = molecular target: Glucocorticoid receptor (Homo sapiens) (UniProt P04150); details: Compound concentration 10.0 uM
[25] = molecular target: Serine/threonine-protein kinase 33 (Homo sapiens, UniProt Q9BYT3); assay: STK33(ST33LGF1) Takeda global kinase panel
[26] = molecular target: Eukaryotic translation initiation factor 2-alpha kinase 1 (Homo sapiens, UniProt Q9BQI3); assay: HRI(EIK1CGQ1) Takeda global kinase panel
[27] = molecular target: B2 bradykinin receptor (Homo sapiens) (UniProt P30411); details: Compound concentration 10.0 uM
[28] = molecular target: Myosin light chain kinase, smooth muscle (Homo sapiens, UniProt Q15746); assay: smMLCK(MYL1LGF1) Takeda global kinase panel
[29] = molecular target: Androgen receptor (Homo sapiens) (UniProt P10275); details: Compound concentration 10.0 uM
Sequence of Androgen receptor (Homo sapiens) (P10275 whole entry): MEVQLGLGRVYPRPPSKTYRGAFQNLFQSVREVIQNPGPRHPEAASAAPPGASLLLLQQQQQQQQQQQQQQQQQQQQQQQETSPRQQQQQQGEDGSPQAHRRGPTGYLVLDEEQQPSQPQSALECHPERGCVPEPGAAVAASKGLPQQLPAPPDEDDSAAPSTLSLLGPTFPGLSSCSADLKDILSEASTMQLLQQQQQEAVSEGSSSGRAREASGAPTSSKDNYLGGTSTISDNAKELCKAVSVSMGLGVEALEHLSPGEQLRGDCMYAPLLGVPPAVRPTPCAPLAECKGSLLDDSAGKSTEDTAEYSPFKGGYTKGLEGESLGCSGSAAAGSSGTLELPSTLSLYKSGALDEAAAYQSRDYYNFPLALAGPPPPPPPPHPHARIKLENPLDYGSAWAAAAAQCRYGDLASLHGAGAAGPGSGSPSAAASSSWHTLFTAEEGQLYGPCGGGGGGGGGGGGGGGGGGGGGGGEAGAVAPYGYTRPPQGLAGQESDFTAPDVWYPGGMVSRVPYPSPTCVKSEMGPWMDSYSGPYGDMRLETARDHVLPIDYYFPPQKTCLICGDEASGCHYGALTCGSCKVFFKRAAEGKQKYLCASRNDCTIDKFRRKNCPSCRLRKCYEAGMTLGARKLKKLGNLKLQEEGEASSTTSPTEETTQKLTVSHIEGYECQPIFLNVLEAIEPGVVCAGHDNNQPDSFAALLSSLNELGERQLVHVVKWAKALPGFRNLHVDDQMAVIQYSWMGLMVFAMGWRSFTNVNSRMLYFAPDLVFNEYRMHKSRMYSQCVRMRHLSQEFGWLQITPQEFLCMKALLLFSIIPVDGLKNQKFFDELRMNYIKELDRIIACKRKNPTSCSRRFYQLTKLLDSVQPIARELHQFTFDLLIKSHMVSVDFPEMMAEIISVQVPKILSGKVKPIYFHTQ

Homo sapiens = organism: Homo sapiens; details: Compound concentration 10.0 uM
[30] = molecular target: Mitogen-activated protein kinase kinase kinase kinase 1 (Homo sapiens, UniProt Q92918); assay: HPK1(M4K1LGY1) Takeda global kinase panel
[31] = molecular target: TRAF2 and NCK-interacting protein kinase (Homo sapiens, UniProt Q9UKE5); assay: TNIK [ZC2(TNIKLGF1)] Takeda global kinase panel
[32] = molecular target: Tyrosine-protein kinase CSK (Homo sapiens, UniProt P41240); assay: CSK(CSK1LGF1) Takeda global kinase panel
[33] = molecular target: Mitogen-activated protein kinase kinase kinase 9 (Homo sapiens, UniProt P80192); assay: MLK1(M3K9LGF1) Takeda global kinase panel
[34] = molecular target: Mast/stem cell growth factor receptor Kit (Homo sapiens, UniProt P10721); assay: Kit(KIT1MGC1) Takeda global kinase panel
Rattus norvegicus = organism: Rattus norvegicus; assay: Inhibition of Glutamate, NMDA, Phencyclidine at 10 µM in the Eurofins-Panlabs radioligand binding assay (Eurofins_assay_233000); assay type: protein-complex assay; details: Compound concentration 10.0 uM
[35] = molecular target: Phosphatidylinositol 4,5-bisphosphate 3-kinase catalytic subunit beta isoform (Homo sapiens, UniProt P42338); assay: PIK3CB(PI3BCGRK) Takeda global kinase panel
[36] = molecular target: NT-3 growth factor receptor (Homo sapiens, UniProt Q16288); assay: TRKC(NTR3LGN1) Takeda global kinase panel
Sequence of NT-3 growth factor receptor (Q16288 whole entry): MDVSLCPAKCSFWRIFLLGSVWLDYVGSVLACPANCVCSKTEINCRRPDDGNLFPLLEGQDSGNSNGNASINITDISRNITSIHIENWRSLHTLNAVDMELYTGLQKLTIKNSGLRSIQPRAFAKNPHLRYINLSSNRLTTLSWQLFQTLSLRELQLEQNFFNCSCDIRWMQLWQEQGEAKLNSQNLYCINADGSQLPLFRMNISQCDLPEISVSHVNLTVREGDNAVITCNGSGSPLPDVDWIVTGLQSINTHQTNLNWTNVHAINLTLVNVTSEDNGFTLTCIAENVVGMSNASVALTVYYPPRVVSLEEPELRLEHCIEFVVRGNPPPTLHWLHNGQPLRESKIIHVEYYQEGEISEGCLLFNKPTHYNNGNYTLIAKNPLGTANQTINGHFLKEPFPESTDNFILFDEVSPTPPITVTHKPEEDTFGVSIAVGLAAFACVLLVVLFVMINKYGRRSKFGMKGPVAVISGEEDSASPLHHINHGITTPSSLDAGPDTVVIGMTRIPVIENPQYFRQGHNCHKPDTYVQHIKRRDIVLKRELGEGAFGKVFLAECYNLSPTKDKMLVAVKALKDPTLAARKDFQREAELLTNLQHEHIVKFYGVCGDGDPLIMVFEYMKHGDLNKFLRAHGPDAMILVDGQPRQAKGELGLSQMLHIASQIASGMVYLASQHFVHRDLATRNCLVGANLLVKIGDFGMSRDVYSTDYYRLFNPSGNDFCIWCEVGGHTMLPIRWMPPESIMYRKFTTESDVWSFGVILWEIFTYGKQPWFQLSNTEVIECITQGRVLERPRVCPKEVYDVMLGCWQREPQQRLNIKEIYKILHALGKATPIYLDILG

[37] = molecular target: Tyrosine-protein kinase receptor UFO (Homo sapiens, UniProt P30530); assay: Axl(AXL1LGY1) Takeda global kinase panel
Sequence of Tyrosine-protein kinase receptor UFO (P30530 whole entry): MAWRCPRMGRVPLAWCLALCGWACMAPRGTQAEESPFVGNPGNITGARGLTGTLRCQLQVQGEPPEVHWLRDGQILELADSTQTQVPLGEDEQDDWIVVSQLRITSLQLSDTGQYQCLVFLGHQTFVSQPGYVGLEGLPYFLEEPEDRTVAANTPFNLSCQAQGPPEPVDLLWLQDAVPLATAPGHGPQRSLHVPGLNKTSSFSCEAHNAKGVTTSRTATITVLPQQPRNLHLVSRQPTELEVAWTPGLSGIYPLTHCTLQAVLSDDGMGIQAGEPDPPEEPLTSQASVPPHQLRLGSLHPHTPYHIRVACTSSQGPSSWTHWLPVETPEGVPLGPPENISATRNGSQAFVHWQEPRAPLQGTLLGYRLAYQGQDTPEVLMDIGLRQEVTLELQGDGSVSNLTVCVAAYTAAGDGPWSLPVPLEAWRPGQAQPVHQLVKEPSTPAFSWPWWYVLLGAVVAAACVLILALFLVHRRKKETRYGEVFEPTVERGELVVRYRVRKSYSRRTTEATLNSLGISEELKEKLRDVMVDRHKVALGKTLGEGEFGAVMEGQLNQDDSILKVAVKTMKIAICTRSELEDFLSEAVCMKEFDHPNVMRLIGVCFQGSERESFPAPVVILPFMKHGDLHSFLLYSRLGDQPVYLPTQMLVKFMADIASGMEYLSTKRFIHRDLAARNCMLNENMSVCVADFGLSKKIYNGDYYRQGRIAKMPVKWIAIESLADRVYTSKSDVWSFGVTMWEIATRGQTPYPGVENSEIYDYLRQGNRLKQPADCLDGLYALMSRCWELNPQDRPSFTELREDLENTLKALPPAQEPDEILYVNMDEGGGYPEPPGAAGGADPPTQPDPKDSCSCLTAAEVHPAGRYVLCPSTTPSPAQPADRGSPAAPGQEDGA

[38] = molecular target: Sodium-dependent serotonin transporter (Homo sapiens) (UniProt P31645); details: Compound concentration 10.0 uM
[39] = molecular target: Vascular endothelial growth factor receptor 2 (Homo sapiens, UniProt P35968); assay: KDR(KDR1CGY1) Takeda global kinase panel
[40] = molecular target: Muscarinic acetylcholine receptor M3 (Homo sapiens) (UniProt P20309); details: Compound concentration 10.0 uM
Sequence of Muscarinic acetylcholine receptor M3 (Homo sapiens) (P20309 whole entry, looked up): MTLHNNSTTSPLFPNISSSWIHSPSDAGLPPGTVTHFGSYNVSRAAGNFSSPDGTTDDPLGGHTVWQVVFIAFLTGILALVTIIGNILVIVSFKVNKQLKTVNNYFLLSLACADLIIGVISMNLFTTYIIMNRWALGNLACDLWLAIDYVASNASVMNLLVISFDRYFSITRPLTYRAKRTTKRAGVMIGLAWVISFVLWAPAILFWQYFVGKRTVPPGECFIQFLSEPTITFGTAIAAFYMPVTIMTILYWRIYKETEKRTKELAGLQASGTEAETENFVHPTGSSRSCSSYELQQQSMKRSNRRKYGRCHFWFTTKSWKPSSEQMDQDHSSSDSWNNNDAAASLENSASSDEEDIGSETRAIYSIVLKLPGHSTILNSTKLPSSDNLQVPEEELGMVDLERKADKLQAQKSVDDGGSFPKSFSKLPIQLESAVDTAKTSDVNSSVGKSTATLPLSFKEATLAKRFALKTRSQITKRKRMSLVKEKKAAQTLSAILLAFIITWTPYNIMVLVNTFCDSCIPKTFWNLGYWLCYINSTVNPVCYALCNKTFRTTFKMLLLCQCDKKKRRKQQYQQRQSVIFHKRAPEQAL

[41] = molecular target: Serine/threonine-protein kinase TBK1 (Homo sapiens, UniProt Q9UHD2); assay: TBK1(TBK1CGF1) Takeda global kinase panel
SRSF protein kinase 3 = SRSF protein kinase 3 (Homo sapiens, UniProt Q9UPE1); assay: MSSK1(SRP3MHRL) Takeda global kinase panel
Sequence of SRSF protein kinase 3 (Q9UPE1 whole entry): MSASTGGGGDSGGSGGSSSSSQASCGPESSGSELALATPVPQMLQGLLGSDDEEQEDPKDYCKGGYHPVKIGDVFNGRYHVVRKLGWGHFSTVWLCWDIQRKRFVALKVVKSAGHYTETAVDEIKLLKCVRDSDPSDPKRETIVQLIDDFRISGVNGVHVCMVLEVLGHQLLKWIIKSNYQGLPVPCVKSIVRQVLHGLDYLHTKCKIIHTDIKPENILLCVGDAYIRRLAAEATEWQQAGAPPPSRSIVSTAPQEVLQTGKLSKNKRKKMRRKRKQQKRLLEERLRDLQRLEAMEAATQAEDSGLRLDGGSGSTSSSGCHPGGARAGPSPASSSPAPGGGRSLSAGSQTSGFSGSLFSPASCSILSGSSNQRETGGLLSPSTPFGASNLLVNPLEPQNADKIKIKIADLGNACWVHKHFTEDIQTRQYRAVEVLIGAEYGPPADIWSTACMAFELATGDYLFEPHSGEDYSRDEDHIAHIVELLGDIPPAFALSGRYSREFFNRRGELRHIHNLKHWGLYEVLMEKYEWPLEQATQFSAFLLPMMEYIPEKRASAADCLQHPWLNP

[42] = molecular target: Tyrosine-protein kinase HCK (Homo sapiens, UniProt P08631); assay: HCK(HCK1LGF1) Takeda global kinase panel

CN1C(=O)[C@@H](N2CCc3cn(Cc4ccccc4)nc3C2=O)COc2ccccc21 [TP-030-1]
IC50 [1]: 1 µM
IC50 [2]: 1 µM
IC50 [3]: 1 µM
IC50 [4]: 1 µM
IC50 [5]: 1 µM
inhibition [6]: 29%
inhibition [7]: 8%
IC50 [8]: 1 µM
IC50 [9]: 1 µM
IC50 [10]: 1 µM
IC50 [11]: 1 µM
IC50 [12]: 1 µM
IC50 [13]: 1 µM
IC50 [14]: 1 µM
IC50 [15]: 1 µM
IC50 [16]: 1 µM
IC50 (Ephrin type-A receptor 6): 1 µM
inhibition [17]: 45%
IC50 [18]: 1 µM
IC50 [19]: 1 µM
IC50 [20]: 1 µM
IC50 [21]: 1 µM
IC50 [22]: 1 µM
IC50 [23]: 1 µM
inhibition [24]: 5%
IC50 [25]: 1 µM
IC50 [26]: 1 µM
inhibition [27]: 4%
IC50 [28]: 1 µM
inhibition [29]: 6%
inhibition (Homo sapiens): 21%
IC50 [30]: 1 µM
IC50 [31]: 1 µM
IC50 [32]: 1 µM
IC50 [33]: 1 µM
IC50 [34]: 1 µM
inhibition (Rattus norvegicus): -8%
IC50 [35]: 1 µM
IC50 [36]: 1 µM
IC50 [37]: 1 µM
inhibition [38]: -4%
IC50 [39]: 1 µM
inhibition [40]: 1%
IC50 [41]: 1 µM
IC50 (SRSF protein kinase 3): 1 µM
IC50 [42]: 1 µM

CN1C(=O)[C@@H](N2CCc3cn(CC4CCS(=O)(=O)CC4)nc3C2=O)COc2ccccc21 [TP-030n]
IC50 [1]: 1 µM
IC50 [2]: 1 µM
IC50 [3]: 1 µM
IC50 [4]: 1 µM
IC50 [5]: 1 µM
inhibition [6]: 10%
inhibition [7]: 4%
IC50 [8]: 1 µM
IC50 [9]: 1 µM
IC50 [10]: 1 µM
IC50 [11]: 1 µM
IC50 [12]: 1 µM
IC50 [13]: 1 µM
IC50 [14]: 1 µM
IC50 [15]: 1 µM
IC50 [16]: 1 µM
IC50 (Ephrin type-A receptor 6): 1 µM
inhibition [17]: 9%
IC50 [18]: 1 µM
IC50 [19]: 1 µM
IC50 [20]: 1 µM
IC50 [21]: 1 µM
IC50 [22]: 1 µM
IC50 [23]: 1 µM
inhibition [24]: 3%
IC50 [25]: 1 µM
IC50 [26]: 1 µM
inhibition [27]: -4%
IC50 [28]: 1 µM
inhibition [29]: 0%
inhibition (Homo sapiens): 2%
IC50 [30]: 1 µM
IC50 [31]: 1 µM
IC50 [32]: 1 µM
IC50 [33]: 1 µM
IC50 [34]: 1 µM
inhibition (Rattus norvegicus): -9%
IC50 [35]: 1 µM
IC50 [36]: 1 µM
IC50 [37]: 1 µM
inhibition [38]: 5%
IC50 [39]: 1 µM
inhibition [40]: -3%
IC50 [41]: 1 µM
IC50 (SRSF protein kinase 3): 1 µM
IC50 [42]: 1 µM
